# Source: US9981942B2, “Piperidine derivatives having multimodal activity against pain” (LABORATORIOS DEL DR. ESTEVE S.A., priority 2013, dated 2018)
# System: σ1 receptor and the μ-opiod receptor
# Experiment: μ and σ1 dual binding: combined class from the Ki of both radioligand assays
# Design: species or system human; key to μ and σ1 dual binding: +: Both Ki-μ and Ki-σ1>=500 nM; ++: One Ki<500 nM while the other Ki is >=500 nM; +++: Both Ki-μ and Ki-σ1<500 nM; ++++: Both Ki-μ and Ki-σ1<100 nM
# Settings: transfected HEK-293 membranes (σ1), transfected CHO-K1 cell membranes (μ); for μ and σ1 dual binding: combined class for Ki-μ and Ki-σ1
# How it was run: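 Classes combine both Ki values, split at 500 nM and 100 nM. Human μ-opioid binding used 1 nM [3H]-DAMGO on CHO-K1 membranes (27 °C, 60 min, pH 7.4, naloxone 10 μM for NSB); human σ1 used 5 nM [3H](+)-pentazocine on HEK-293 membranes (37 °C, 120 min, pH 8, haloperidol 10 μM for NSB).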
SMILES,μ and σ1 dual binding,Ki range for both μ and σ1 (dual-binding class) [µM]
"CC(C)S(=O)(=O)Nc1cccc(C2CCN(Cc3cn(Cc4cnc(C(F)(F)F)nc4)nn3)CC2)c1 [Example 129, N-(3-(1-((1-((2-(trifluoromethyl)pyrimidin-5-yl)methyl)-1H-1,2,3-triazol-4-yl)methyl)piperidin-4-yl)phenyl)propane-2-sulfonamide]",++,–
"CC(C)S(=O)(=O)Nc1cccc(C2CCN(Cc3cn(C(CO)c4ccccc4)nn3)CC2)c1 (centres unmarked) [Example 130, N-(3-(1-((1-(2-hydroxy-1-phenylethyl)-1H-1,2,3-triazol-4-yl)methyl)piperidin-4-yl)phenyl)propane-2-sulfonamide]",++,–
"CS(=O)(=O)Nc1cccc(C2CCN(Cc3cn(C(CO)c4ccccc4)nn3)CC2)c1 (centres unmarked) [Example 131, N-(3-(1-((1-(2-hydroxy-1-phenylethyl)-1H-1,2,3-triazol-4-yl)methyl)piperidin-4-yl)phenyl)methanesulfonamide]",++,–
"Oc1cccc(C2CCN(Cc3cn(Cc4cccc(F)n4)nn3)CC2)c1 [Example 132, 3-(1-((1-((6-fluoropyridin-2-yl)methyl)-1H-1,2,3-triazol-4-yl)methyl)piperidin-4-yl)phenol]",–,< 0.5
"Oc1cccc(C2CCN(Cc3cn(Cc4ccc(F)cn4)nn3)CC2)c1 [Example 133, 3-(1-((1-((5-fluoropyridin-2-yl)methyl)-1H-1,2,3-triazol-4-yl)methyl)piperidin-4-yl)phenol]",–,< 0.5
"Oc1cccc(C2CCN(Cc3cn(Cc4ncccc4F)nn3)CC2)c1 [Example 134, 3-(1-((1-((3-fluoropyridin-2-yl)methyl)-1H-1,2,3-triazol-4-yl)methyl)piperidin-4-yl)phenol]",–,< 0.5
"CC(C)S(=O)(=O)Nc1cccc(C2CCN(Cc3cn(Cc4ccc(F)cn4)nn3)CC2)c1 [Example 135, N-(3-(1-((1-((5-fluoropyridin-2-yl)methyl)-1H-1,2,3-triazol-4-yl)methyl)piperidin-4-yl)phenyl)propane-2-sulfonamide]",++,–
"Oc1cc(C2CCN(Cc3cn(Cc4ccccn4)nn3)CC2)ccc1F [Example 136, 2-fluoro-5-(1-((1-(pyridin-2-ylmethyl)-1H-1,2,3-triazol-4-yl)methyl)piperidin-4-yl)phenol]",–,< 0.5
"Oc1ccc(F)c(C2CCN(Cc3cn(Cc4ccccn4)nn3)CC2)c1 [Example 137, 4-fluoro-3-(1-((1-(pyridin-2-ylmethyl)-1H-1,2,3-triazol-4-yl)methyl)piperidin-4-yl)phenol]",–,< 0.5
"CNS(=O)(=O)c1cccc(C2CCN(Cc3cn(Cc4ccccn4)nn3)CC2)c1 [Example 138, N-methyl-3-(1-((1-(pyridin-2-ylmethyl)-1H-1,2,3-triazol-4-yl)methyl)piperidin-4-yl)benzenesulfonamide]",–,≥ 0.5
"c1ccc(Cn2cc(CN3CCC(c4cccc(-c5ncc[nH]5)c4)CC3)nn2)nc1 [Example 139, 2-((4-((4-(3-(1H-imidazol-2-yl)phenyl)piperidin-1-yl)methyl)-1H-1,2,3-triazol-1-yl)methyl)pyridine]",++,–
"NS(=O)(=O)c1cccc(C2CCN(Cc3cn(-c4ccccc4)nn3)CC2)c1 [Example 140, 3-(1-((1-phenyl-1H-1,2,3-triazol-4-yl)methyl)piperidin-4-yl)benzenesulfonamide]",–,≥ 0.5
"NS(=O)(=O)c1cccc(C2CCN(Cc3cn(Cc4ccccn4)nn3)CC2)c1 [Example 141, 3-(1-((1-(pyridin-2-ylmethyl)-1H-1,2,3-triazol-4-yl)methyl)piperidin-4-yl)benzenesulfonamide]",–,≥ 0.5
"Oc1cccc(C2CCN(Cc3cn(-c4ccccc4F)nn3)CC2)c1 [Example 142, 3-(1-((1-(2-fluorophenyl)-1H-1,2,3-triazol-4-yl)methyl)piperidin-4-yl)phenol]",–,< 0.1
